Patent US4745191A, “1-((A-substituted phenyl-ω-substituted piperazinyl)alkenyl) cyclohexanol” (American Home Products Corporation, priority 1987, dated 1988)
Read-outs that look alike come from different tables or passages of the source.

How the values were obtained:
5-HT1A receptor = target: T1, 5-HT1A receptor (Rattus norvegicus, UniProt P19327); test: inhibition of [3H] 8-hydroxy-2-(di-n-propylamino)tetraline binding at 5-HT1A receptor binding sites in rat hippocampal tissue; conditions: for inhibition at 1 µM: read-out: Receptor Binding 5HT1A % Inhibition at 1 μM
T1 construct: from tissue; host or cells: rat hippocampal tissue
T1 sequence (P19327 1-422): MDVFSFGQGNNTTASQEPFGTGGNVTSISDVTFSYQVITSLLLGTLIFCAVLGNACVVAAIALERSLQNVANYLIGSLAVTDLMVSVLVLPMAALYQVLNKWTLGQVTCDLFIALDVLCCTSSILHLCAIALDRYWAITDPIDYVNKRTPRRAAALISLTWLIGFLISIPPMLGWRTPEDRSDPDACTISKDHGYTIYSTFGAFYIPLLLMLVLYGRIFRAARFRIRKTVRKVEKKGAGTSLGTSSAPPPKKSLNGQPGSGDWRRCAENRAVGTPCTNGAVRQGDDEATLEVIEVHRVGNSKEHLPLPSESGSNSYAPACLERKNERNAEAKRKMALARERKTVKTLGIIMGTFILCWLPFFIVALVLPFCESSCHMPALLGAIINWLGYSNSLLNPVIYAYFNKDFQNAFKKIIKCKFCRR
Text: 8-hydroxy-2-(di-n-propylamino)tetraline binding at 5-HT binding sites in rat hippocamphal tissue, following the procedure of Hall et al., J. Neurochem., 44 1685 (1985).

[1] = tested on: NE (synaptosomal norepinephrine uptake); test: inhibition of synaptosomal uptake of norepinephrine (3H-NE); assay type: biochemical; conditions: synaptosomal 3H-NE uptake; for IC50: read-out: Neuronal Uptake NE IC50
dopamine D2 receptor = target: T2, dopamine D2 receptor (Rattus norvegicus, UniProt P61169); test: inhibition of 3H-haloperidol binding at D2 receptors in homogenized limbic brain tissue
T2 construct: D2 receptors found in homogenized limbic brain tissue; from tissue; host or cells: homogenized limbic brain tissue
T2 sequence (P61169 whole entry): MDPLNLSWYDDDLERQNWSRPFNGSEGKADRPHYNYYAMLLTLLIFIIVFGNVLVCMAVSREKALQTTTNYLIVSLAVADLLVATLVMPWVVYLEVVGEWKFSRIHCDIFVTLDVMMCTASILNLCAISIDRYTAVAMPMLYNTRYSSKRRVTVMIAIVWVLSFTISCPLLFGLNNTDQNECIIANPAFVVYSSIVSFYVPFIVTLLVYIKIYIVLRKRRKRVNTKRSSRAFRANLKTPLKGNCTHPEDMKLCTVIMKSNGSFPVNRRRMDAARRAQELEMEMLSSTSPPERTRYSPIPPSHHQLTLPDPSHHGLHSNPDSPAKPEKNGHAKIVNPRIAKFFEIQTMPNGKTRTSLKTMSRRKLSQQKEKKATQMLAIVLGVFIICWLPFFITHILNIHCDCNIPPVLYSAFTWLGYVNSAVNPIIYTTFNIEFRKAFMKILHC
Text: The actual percentage reduction of ^3 H-haloperidol binding is reported infra and the larger the number, the greater the potential for dopamine D2 receptor binding and antipsychotic activity.

[2] = tested on: 5HT (synaptosomal serotonin uptake); test: inhibition of synaptosomal uptake of serotonin (14C-5-HT); assay type: biochemical; conditions: synaptosomal 14C-5-HT uptake; for IC50: read-out: Neuronal Uptake 5HT IC50
[3] = at 1 μM, rat hippocampal tissue

Row | SMILES | Ki (5-HT1A receptor; rat hippocampal tissue) | IC50 [1] | inhibition at 1 µM (dopamine D2 receptor) | IC50 [2] | inhibition at 1 µM (5-HT1A receptor; [3]) | also measured
1 | O=C1CC2(CCCC2)CC(=O)N1CCCCN1CCN(c2ncccn2)CC1 [Buspirone, reference compound] | – | – | – | – | – | inhibition at 1 µM (5-HT1A receptor): 97%
2 | COc1cccc(C(=CCN2CCN(Cc3ccccc3)CC2)C2(O)CCCCC2)c1 [Example 1, 1-[1-(3-methoxyphenyl)-3-[4-(phenylmethyl)-1-piperazinyl]-1-propenyl]cyclohexanol] | 3 nM | 640 nM | 80% | 1690 nM | – | –
3 | COc1ccc(C(=CCN2CCN(Cc3ccccc3)CC2)C2(O)CCCCC2)cc1 [Example 2, 1-[1-(4-methoxyphenyl)-3-[4-(phenylmethyl)-1-piperazinyl]-1-propenyl]cyclohexanol] | 4 nM | – | 66% | – | – | –
4 | COc1cccc(C(=CCN2CCN(Cc3cccc(Cl)c3)CC2)C2(O)CCCCC2)c1 [Example 4] | 0.7 nM | – | – | – | – | Neuronal Uptake NE % Inhibition at 10 μM ([1]; at 10 μM): 100%; Ki (dopamine D2 receptor): 17 nM; Neuronal Uptake 5HT % Inhibition at 10 μM ([2]; at 10 μM): 100%
5 | COc1cccc(C(=CCN2CCN(Cc3ccc(Cl)cc3)CC2)C2(O)CCCCC2)c1 [Example 5, 1-[3-[4-[(4-chlorophenyl)methyl]-1-piperazinyl]-1-(3-methoxyphenyl)-1-propenyl]cyclohexanol] | – | – | 76% | – | 99% | –
6 | COc1cccc(C(=CCN2CCN(Cc3ccc(C(F)(F)F)cc3)CC2)C2(O)CCCCC2)c1 [Example 6, 1-[1-(3-methoxyphenyl)-3-[4-[[4-(trifluoromethyl)phenyl]methyl]-1-piperazinyl]-1-propenyl]cyclohexanol] | – | – | 76% | – | 99% | –
7 | COc1cccc(C(=CCN2CCN(c3ncccn3)CC2)C2(O)CCCCC2)c1 [Example 7] | 49 nM | 4820 nM | 61% | 2090 nM | – | –
8 | COc1cccc(C(=CCN2CCN(c3cncc(Cl)n3)CC2)C2(O)CCCCC2)c1 [Example 8, 1-[3-[4-(6-chloro-2-pyrazinyl)-1-piperazinyl]-1-(3-methoxyphenyl)-1-(3-methoxyphenyl)-1-propenyl]cyclohexanol] | 138 nM | – | – | – | – | –
9 | COc1ccc(C(=CCCN2CCN(Cc3ccccc3)CC2)C2(O)CCCCC2)cc1 [Example 10, 1-[1-(4-methoxyphenyl)-4-[4-(phenylmethyl)-1-piperazinyl]-1-butenyl]cyclohexanol] | – | 190 nM | 53% | 920 nM | 74% | –
